Data as given in patent US20100029604A1, “ANTIBACTERIAL COMBINATION AND ITS USE” (priority 2007, published 2010).
In brackets after ≈: the same amount, converted by molar mass. Where two headings read alike, the source gives them in different places.

Experiments:
E. coli TEM-1 = assay type: cell-based; conditions: TEM-1, class A, inhibitor constant 4 μg/mL
Escherichia coli TEM-7 = test: MIC, characterised β-lactamase producing strain (Example 5, Tables 5-7); assay type: cell-based
Procedure: The MIC experiments were performed in duplicate in 96-well microtiter plates using CAMHB. […] The bacterial suspension with final inoculum 10^5 CFU/mL was transferred to the test medium containing the antibacterial substances. In each well of a 96-well microtiter plate was combined 50 μL of bacterial inoculum, 50 μL of antibiotic dilutions (or media for determination of the MIC of the antibiotic in the absence of test compound). Each plate included 4 wells with no bacterial inoculum (negative control) and 4 wells with no test compound and no antibiotic (positive control). The plates were incubated at 35° C. for 24 h. Purity check and colony counts on each inoculum suspension was performed to ensure that the final inoculum concentration routinely obtained closely approximates 5×10^5 CFU/mL. In addition the assay is routinely monitored by testing standard antibiotics and ensuring that MIC values are within the recommended ranges for the respective strains.
(§1) This test permits comparisons to be made between bacterial growth in the presence of antibiotic alone and bacterial growth in the presence of both an antibiotic and a novel (test) compound.

C. freundii AmpC = test: Synergy MIC, inhibitor at 4 μg/mL (Example 4); assay type: cell-based, Citrobacter freundii; conditions: class C, inhibitor constant 4 μg/mL
Procedure: (§2) The in vitro activities of the antibiotics were determined by the broth microdilution method and agar dilution technique as recommended by CLSI guidelines. The MIC experiments were performed in duplicate in 96-well microtiter plates using MHB. Serial twofold dilutions of each antibiotic either alone or in combination with a constant amount (4 μg/mL) of a β-lactamase inhibitor were prepared in MHBII broth. A sterile pipette tip was used to mix the contents of each well (one tip was used going from the low to the high concentration in the same column). The bacterial suspension with final inoculum 10^5 CFU/mL was transferred to the test medium containing the antibacterial substances by a multipoint inoculator (Dynatech, Chantilly, Va., USA). The plates were then incubated at 35° C. for 24 h.
(§3) Following procedures identical to those described in Example 3, representative compound of Formula (I) was tested for its ability to enhance antibiotic efficacy against Class C β-lactamase positive bacterial strains that are highly resistant to β-lactam antibiotics. Class C enzymes included AmpC β-lactamases of Enterobacter Cloacae and Citrobacter freundii.

Escherichia coli OXA-3 = test: MIC, characterised β-lactamase producing strain (Example 5, Tables 5-7); assay type: cell-based
Procedure: (§4) The MIC experiments were performed in duplicate in 96-well microtiter plates using CAMHB. Serial twofold dilutions of each antibiotic either alone or in combination with constant concentration ratio of a β-lactamase inhibitor (2:1) were prepared in CAMHB. The bacterial suspension with final inoculum 10^5 CFU/mL was transferred to the test medium containing the antibacterial substances. In each well of a 96-well microtiter plate was combined 50 μL of bacterial inoculum, 50 μL of antibiotic dilutions (or media for determination of the MIC of the antibiotic in the absence of test compound). Each plate included 4 wells with no bacterial inoculum (negative control) and 4 wells with no test compound and no antibiotic (positive control). The plates were incubated at 35° C. for 24 h. Purity check and colony counts on each inoculum suspension was performed to ensure that the final inoculum concentration routinely obtained closely approximates 5×10^5 CFU/mL. In addition the assay is routinely monitored by testing standard antibiotics and ensuring that MIC values are within the recommended ranges for the respective strains.
as §1

Escherichia coli TEM-3 = test: as above; assay type: cell-based
Procedure: as §4, §1

Escherichia coli TEM-31 = test: as above; assay type: cell-based
Procedure: as §4, §1

Escherichia coli HMS-1 = test: as above; assay type: cell-based
Procedure: as §4, §1

Escherichia coli SHV-2A = test: as above; assay type: cell-based
Procedure: as §4, §1

Escherichia coli SHV-3 = test: as above; assay type: cell-based
Procedure: as §4, §1

Escherichia coli TEM-2 = test: as above; assay type: cell-based
Procedure: as §4, §1

Escherichia coli OXA-2 = test: as above; assay type: cell-based
Procedure: as §4, §1

[1] = system: Pseudomonas aeruginosa CARB-3; test: as above; assay type: cell-based
Procedure: as §4, §1

[2] = system: Klebsiella oxytoca K1 highperproduced; test: as above; assay type: cell-based
Procedure: as §4, §1

Escherichia coli OXA-5 = test: as above; assay type: cell-based
Procedure: as §4, §1

Escherichia coli TEM-35 = test: as above; assay type: cell-based
Procedure: as §4, §1

E. coli SHV-3 = test: Synergy MIC, inhibitor at 4 μg/mL (Example 4); assay type: cell-based; conditions: SHV-3, class A, inhibitor constant 4 μg/mL
Escherichia coli TEM-1 = assay type: cell-based
Procedure: as §4, §1

K. pneumoniae SHV-18 = test: Synergy MIC, inhibitor at 4 μg/mL (Example 4); assay type: cell-based; conditions: SHV-18, class A, inhibitor constant 4 μg/mL
E. coli TEM-2 = assay type: cell-based; conditions: TEM-2, class A, inhibitor constant 4 μg/mL
E. cloacae AmpC = test: Synergy MIC, inhibitor at 4 μg/mL (Example 4); assay type: cell-based, Enterobacter Cloacae; conditions: class C, inhibitor constant 4 μg/mL
Procedure: as §2, §3

`CO/N=C(\C(=O)N[C@@H]1C(=O)N2C(C(=O)[O-])=C(C[N+]3(C)CCCC3)CS[C@H]12)c1csc(N)n1` [cefepime] showed an MIC (E. coli TEM-1) of 12.8 µg/mL (≈ 26.6 µM), an MIC (Escherichia coli TEM-7; Escherichia coli TEM-7, functional group 2be, LK-157 in combination constant 4 μg/mL) of 16 µg/mL and an MIC (C. freundii AmpC) of 0.8 µg/mL. For the same compound, the MIC (Escherichia coli OXA-3; Escherichia coli OXA-3, functional group 2d, LK-157 in combination constant 4 μg/mL) was 0.125 µg/mL, the MIC (Escherichia coli TEM-3; Escherichia coli TEM-3, functional group 2be, LK-157 in combination constant 4 μg/mL) was 4 µg/mL and the MIC (Escherichia coli TEM-31; Escherichia coli TEM-31, functional group 2br, LK-157 in combination constant 4 μg/mL) was 0.125 µg/mL. For the same compound, the MIC (Escherichia coli HMS-1; Escherichia coli HMS-1, functional group 2b, LK-157 in combination constant 4 μg/mL) was 0.125 µg/mL, the MIC (Escherichia coli SHV-2A; functional group 2be, LK-157 in combination constant 4 μg/mL) was 16 µg/mL and the MIC (Escherichia coli SHV-3; Escherichia coli SHV-3, functional group 2be, LK-157 in combination constant 4 μg/mL) was 4 µg/mL. The MIC (Escherichia coli TEM-2; Escherichia coli TEM-2, functional group 2b, LK-157 in combination constant 4 μg/mL) was 0.25 µg/mL, the MIC (Escherichia coli OXA-2; Escherichia coli OXA-2, functional group 2d, LK-157 in combination constant 4 μg/mL) was 0.125 µg/mL and the MIC ([1]; Pseudomonas aeruginosa CARB-3, functional group 2c, LK-157 in combination constant 4 μg/mL) was 16 µg/mL. The MIC ([2]; Klebsiella oxytoca K1 highperproduced, functional group 2be, first listed (r47), LK-157 in combination constant 4 μg/mL) was 1 µg/mL, the MIC ([2]; Klebsiella oxytoca K1 highperproduced, functional group 2be, second listed (r48), LK-157 in combination constant 4 μg/mL) was 4 µg/mL and the MIC (Escherichia coli OXA-5; Escherichia coli OXA-5, functional group 2d, LK-157 in combination constant 4 μg/mL) was 0.125 µg/mL. For the same compound, the MIC (Escherichia coli TEM-35; Escherichia coli TEM-35, functional group 2br, LK-157 in combination constant 4 μg/mL) was 0.125 µg/mL, the MIC (E. coli SHV-3) was 0.4 µg/mL and the MIC (Escherichia coli TEM-1; Escherichia coli TEM-1, functional group 2b, LK-157 in combination constant 4 μg/mL) was 0.125 µg/mL. For the same compound, the MIC (K. pneumoniae SHV-18) was 0.8 µg/mL, the MIC (E. coli TEM-2) was “≦0.025” and the MIC (E. cloacae AmpC; first listed) was 0.8 µg/mL. The MIC (E. cloacae AmpC; second listed) was 1.6 µg/mL and the MIC (E. cloacae AmpC; third listed) was 1.6 µg/mL.
In the case of `CO/N=C(\C(=O)N[C@@H]1C(=O)N2C(C(=O)O)=C(COC(C)=O)CS[C@H]12)c1csc(N)n1` [cefotaxime], the MIC (E. coli TEM-1) is reported as > 25.6 µg/mL, the MIC (Escherichia coli TEM-7; Table 6, Escherichia coli TEM-7, LK-157 at constant 4 μg/mL in combination) is reported as 0.25 µg/mL and the MIC (C. freundii AmpC) is reported as > 25.6 µg/mL. For the same compound, the MIC (Escherichia coli OXA-3; Table 6, Escherichia coli OXA-3, LK-157 at constant 4 μg/mL in combination) was 0.063 µg/mL, the MIC (Escherichia coli TEM-3; Table 6, Escherichia coli TEM-3, LK-157 at constant 4 μg/mL in combination) was 16 µg/mL and the MIC (Escherichia coli TEM-31; Table 6, Escherichia coli TEM-31, LK-157 at constant 4 μg/mL in combination) was 0.063 µg/mL. For the same compound, the MIC (Escherichia coli HMS-1; Table 6, Escherichia coli HMS-1, LK-157 at constant 4 μg/mL in combination) was 0.063 µg/mL, the MIC (Escherichia coli SHV-2A; Table 6, LK-157 at constant 4 μg/mL in combination) was 8 µg/mL and the MIC (Escherichia coli SHV-3; Table 6, Escherichia coli SHV-3, LK-157 at constant 4 μg/mL in combination) was 32 µg/mL. For the same compound, the MIC (Escherichia coli TEM-2; Table 6, Escherichia coli TEM-2, LK-157 at constant 4 μg/mL in combination) was 0.063 µg/mL, the MIC (Escherichia coli OXA-2; Table 6, Escherichia coli OXA-2, LK-157 at constant 4 μg/mL in combination) was 0.063 µg/mL and the MIC ([1]; Table 6, Pseudomonas aeruginosa CARB-3, LK-157 at constant 4 μg/mL in combination) was 16 µg/mL. It also gave an MIC ([2]; Table 6, Klebsiella oxytoca K1 highperproduced, first listed strain, LK-157 at constant 4 μg/mL in combination) of 1 µg/mL, an MIC ([2]; Table 6, Klebsiella oxytoca K1 highperproduced, second listed strain, LK-157 at constant 4 μg/mL in combination) of 1 µg/mL and an MIC (Escherichia coli OXA-5; Table 6, Escherichia coli OXA-5, LK-157 at constant 4 μg/mL in combination) of 0.25 µg/mL. For the same compound, the MIC (Escherichia coli TEM-35; Table 6, Escherichia coli TEM-35, LK-157 at constant 4 μg/mL in combination) was 0.031 µg/mL, the MIC (E. coli SHV-3) was 3.2 µg/mL and the MIC (Escherichia coli TEM-1; Table 6, Escherichia coli TEM-1, LK-157 at constant 4 μg/mL in combination) was 0.063 µg/mL. The MIC (K. pneumoniae SHV-18) was 3.2 µg/mL, the MIC (E. coli TEM-2) was 0.1 µg/mL (≈ 0.22 µM) and the MIC (E. cloacae AmpC; first listed) was > 25.6 µg/mL. The MIC (E. cloacae AmpC; second listed) was > 25.6 µg/mL and the MIC (E. cloacae AmpC; third listed) was > 25.6 µg/mL.
With `CC(C)(O/N=C(\C(=O)N[C@@H]1C(=O)N2C(C(=O)[O-])=C(C[n+]3ccccc3)CS[C@H]12)c1csc(N)n1)C(=O)O` [ceftazidime] the MIC (E. coli TEM-1) was 3.2 µg/mL (≈ 5.85 µM), the MIC (Escherichia coli TEM-7; Table 7, Escherichia coli TEM-7, combination at constant concentration ratio (2:1)) was 32 µg/mL and the MIC (C. freundii AmpC) was > 25.6 µg/mL. The MIC (Escherichia coli OXA-3; Table 7, Escherichia coli OXA-3, combination at constant concentration ratio (2:1)) was 0.5 µg/mL, the MIC (Escherichia coli TEM-3; Table 7, Escherichia coli TEM-3, combination at constant concentration ratio (2:1)) was 32 µg/mL and the MIC (Escherichia coli TEM-31; Table 7, Escherichia coli TEM-31, combination at constant concentration ratio (2:1)) was 0.25 µg/mL. It also gave an MIC (Escherichia coli HMS-1; Table 7, Escherichia coli HMS-1, combination at constant concentration ratio (2:1)) of 0.25 µg/mL, an MIC (Escherichia coli SHV-2A; Table 7, combination at constant concentration ratio (2:1)) of 4 µg/mL and an MIC (Escherichia coli SHV-3; Table 7, Escherichia coli SHV-3, combination at constant concentration ratio (2:1)) of 2 µg/mL. For the same compound, the MIC (Escherichia coli TEM-2; Table 7, Escherichia coli TEM-2, combination at constant concentration ratio (2:1)) was 0.5 µg/mL, the MIC (Escherichia coli OXA-2; Table 7, Escherichia coli OXA-2, combination at constant concentration ratio (2:1)) was 1 µg/mL and the MIC ([1]; Table 7, Pseudomonas aeruginosa CARB-3, combination at constant concentration ratio (2:1)) was 2 µg/mL. For the same compound, the MIC ([2]; Table 7, Klebsiella oxytoca K1 hyperproduced, first listed strain, combination at constant concentration ratio (2:1)) was 1 µg/mL, the MIC ([2]; Table 7, Klebsiella oxytoca K1 hyperproduced, second listed strain, combination at constant concentration ratio (2:1)) was 0.5 µg/mL and the MIC (Escherichia coli OXA-5; Table 7, Escherichia coli OXA-5, combination at constant concentration ratio (2:1)) was 0.5 µg/mL. For the same compound, the MIC (Escherichia coli TEM-35; Table 7, Escherichia coli TEM-35, combination at constant concentration ratio (2:1)) was 0.25 µg/mL, the MIC (E. coli SHV-3) was 0.8 µg/mL and the MIC (Escherichia coli TEM-1; Table 7, Escherichia coli TEM-1, combination at constant concentration ratio (2:1)) was 0.25 µg/mL. The MIC (K. pneumoniae SHV-18) was 25.6 µg/mL, the MIC (E. coli TEM-2) was 1.6 µg/mL (≈ 2.93 µM) and the MIC (E. cloacae AmpC; first listed) was > 25.6 µg/mL. For the same compound, the MIC (E. cloacae AmpC; second listed) was > 25.6 µg/mL and the MIC (E. cloacae AmpC; third listed) was > 25.6 µg/mL.
